From patent US11337976B2 (Plexxikon Inc., priority 2011, dated 2022)

System: A375 melanoma cells (B-Raf V600E mutation)
Assay: A375 (A375_P-ERK) cell activity / cell growth inhibition assay
Assay type: cell-based, human
Settings: Homo sapiens, A-375; A375 cells (text: A375_P-ERK)

Structure (SMILES)	IC50 [µM]
CCN(C)S(=O)(=O)Nc1cccc(C(=O)c2c[nH]c3ncc(C4CCC4)cc23)c1F [P-0297, 5-cyclobutyl-3-[3-[[ethyl(methyl)sulfamoyl]amino]-2-fluoro-benzoyl]-1H-pyrrolo[2,3-b]pyridine]	> 1
CCN(C)S(=O)(=O)Nc1cccc(C(=O)c2c[nH]c3ncc(C4CC4)cc23)c1F [P-0298, 5-cyclopropyl-3-[3-[[ethyl(methyl)sulfamoyl]amino]-2-fluoro-benzoyl]-1H-pyrrolo[2,3-b]pyridine]	> 1
Nc1cc(-c2cnc3[nH]cc(C(=O)c4cccc(NS(=O)(=O)N5CCCC5)c4F)c3c2)ncn1 [P-0299, N-[3-[5-(6-aminopyrimidin-4-yl)-1H-pyrrolo[2,3-b]pyridine-3-carbonyl]-2-fluoro-phenyl]pyrrolidine-1-sulfonamide]	> 1
CCN(C)S(=O)(=O)Nc1ccc(F)c(C(=O)c2c[nH]c3ncc(-c4ccc(N5CCCC5)cc4)cc23)c1F [P-0303, 3-[3-[[ethyl(methyl)sulfamoyl]amino]-2,6-difluoro-benzoyl]-5-(4-pyrrolidin-1-ylphenyl)-1H-pyrrolo[2,3-b]pyridine]	> 1
CCN(C)S(=O)(=O)Nc1ccc(F)c(C(=O)c2c[nH]c3ncc(-c4cncc(C(C)(C)O)c4)cc23)c1F [P-0306, 3-[3-[[ethyl(methyl)sulfamoyl]amino]-2,6-difluoro-benzoyl]-5-[5-(1-hydroxy-1-methyl-ethyl)-3-pyridyl]-1H-pyrrolo[2,3-b]pyridine]	> 1
CCN(C)S(=O)(=O)Nc1ccc(F)c(C(=O)c2c[nH]c3ncc(-c4ccc5c(c4)NC(=O)C5)cc23)c1F [P-0309, 3-[3-[[ethyl(methyl)sulfamoyl]amino]-2,6-difluoro-benzoyl]-5-(2-oxoindolin-6-yl)-1H-pyrrolo[2,3-b]pyridine]	< 1
CCN(C)S(=O)(=O)Nc1ccc(F)c(C(=O)c2c[nH]c3ncc(-c4ccc(-c5noc(C)n5)s4)cc23)c1F [P-0310, 3-[5-[3-[3-[[ethyl(methyl)sulfamoyl]amino]-2,6-difluoro-benzoyl]-1H-pyrrolo[2,3-b]pyridin-5-yl]-2-thienyl]-5-methyl-1,2,4-oxadiazole]	< 1
CCN(C)S(=O)(=O)Nc1ccc(F)c(C(=O)c2c[nH]c3ncc(-c4ccc5nc(N)ncc5c4)cc23)c1F [P-0311, 2-amino-6-[3-[3-[[ethyl(methyl)sulfamoyl]amino]-2,6-difluoro-benzoyl]-1H-pyrrolo[2,3-b]pyridin-5-yl]quinazoline]	< 1
CCN(C)S(=O)(=O)Nc1ccc(F)c(C(=O)c2c[nH]c3ncc(-c4ccc5nc(N(C)C)ncc5c4)cc23)c1F [P-0313, 2-(dimethylamino)-6-[3-[3-[[ethyl(methyl)sulfamoyl]amino]-2,6-difluoro-benzoyl]-1H-pyrrolo[2,3-b]pyridin-5-yl]quinazoline]	< 1
CCN(C)S(=O)(=O)Nc1ccc(F)c(C(=O)c2c[nH]c3ncc(-c4ccc(C5(O)CC5)cc4)cc23)c1F [P-0314, 3-[3-[[ethyl(methyl)sulfamoyl]amino]-2,6-difluoro-benzoyl]-5-[4-(1-hydroxycyclopropyl)phenyl]-1H-pyrrolo[2,3-b]pyridine]	< 1
CCN(C)S(=O)(=O)Nc1ccc(F)c(C(=O)c2c[nH]c3ncc(-c4cncs4)cc23)c1F [P-0315, 5-[3-[3-[[ethyl(methyl)sulfamoyl]amino]-2,6-difluoro-benzoyl]-1H-pyrrolo[2,3-b]pyridin-5-yl]thiazole]	< 1
CCN(C)S(=O)(=O)Nc1ccc(F)c(C(=O)c2c[nH]c3ncc(-c4csc(C(C)(C)O)n4)cc23)c1F [P-0316, 4-[3-[3-[[ethyl(methyl)sulfamoyl]amino]-2,6-difluoro-benzoyl]-1H-pyrrolo[2,3-b]pyridin-5-yl]-2-(1-hydroxy-1-methyl-ethyl)thiazole]	< 1
CCN(C)S(=O)(=O)Nc1ccc(F)c(C(=O)c2c[nH]c3ncc(-c4ccc(OC)nn4)cc23)c1F [P-0317, 3-[3-[[ethyl(methyl)sulfamoyl]amino]-2,6-difluoro-benzoyl]-5-(6-methoxypyridazin-3-yl)-1H-pyrrolo[2,3-b]pyridine]	< 1
O=C(c1c(F)ccc(NS(=O)(=O)N2CCCC2)c1F)c1c[nH]c2ncc(-c3cc(N4CCOCC4)ncn3)cc12 [P-0318, N-[2,4-difluoro-3-[5-(6-morpholinopyrimidin-4-yl)-1H-pyrrolo[2,3-b]pyridine-3-carbonyl]phenyl]pyrrolidine-1-sulfonamide]	< 1
O=C(c1cccc(NS(=O)(=O)N2CCCC2)c1F)c1c[nH]c2ncc(-c3cc(N4CCOCC4)ncn3)cc12 [P-0321, N-[2-fluoro-3-[5-(6-morpholinopyrimidin-4-yl)-1H-pyrrolo[2,3-b]pyridine-3-carbonyl]phenyl]pyrrolidine-1-sulfonamide]	< 1
CN1CCN(c2cc(-c3cnc4[nH]cc(C(=O)c5cccc(NS(=O)(=O)N6CCCC6)c5F)c4c3)ncn2)CC1 [P-0322, N-[2-fluoro-3-[5-[6-(4-methylpiperazin-1-yl)pyrimidin-4-yl]-1H-pyrrolo[2,3-b]pyridine-3-carbonyl]phenyl]pyrrolidine-1-sulfonamide]	< 1

Other lines, results leading:

IC50 [µM]	Structure (SMILES)
< 1	CCN(C)S(=O)(=O)Nc1ccc(F)c(C(=O)c2c[nH]c3ncc(-c4cnc(N5CCCC5)nc4)cc23)c1F [P-0293, 3-[3-[[ethyl(methyl)sulfamoyl]amino]-2,6-difluoro-benzoyl]-5-(2-pyrrolidin-1-ylpyrimidin-5-yl)-1H-pyrrolo[2,3-b]pyridine]
< 1	O=C(c1c(F)ccc(NS(=O)(=O)N2CCCC2)c1F)c1c[nH]c2ncc(-c3ccnc(C4CC4)c3)cc12 [P-0295, N-[3-[5-(2-cyclopropyl-4-pyridyl)-1H-pyrrolo[2,3-b]pyridine-3-carbonyl]-2,4-difluoro-phenyl]pyrrolidine-1-sulfonamide]
< 1	CCN(C)S(=O)(=O)Nc1ccc(F)c(C(=O)c2c[nH]c3ncc(-c4ccc(C(F)(F)F)cc4)cc23)c1F [P-0301, 3-[3-[[ethyl(methyl)sulfamoyl]amino]-2,6-difluoro-benzoyl]-5-[4-(trifluoromethyl)phenyl]-1H-pyrrolo[2,3-b]pyridine]
< 1	CCN(C)S(=O)(=O)Nc1ccc(F)c(C(=O)c2c[nH]c3ncc(-c4ccc(-c5nnc(C)o5)cc4)cc23)c1F [P-0304, 2-[4-[3-[3-[[ethyl(methyl)sulfamoyl]amino]-2,6-difluoro-benzoyl]-1H-pyrrolo[2,3-b]pyridin-5-yl]phenyl]-5-methyl-1,3,4-oxadiazole]
< 1	CCN(C)S(=O)(=O)Nc1ccc(F)c(C(=O)c2c[nH]c3ncc(-c4ccc(-c5nnc(NC)s5)cc4)cc23)c1F [P-0305, 2-[4-[3-[3-[[ethyl(methyl)sulfamoyl]amino]-2,6-difluoro-benzoyl]-1H-pyrrolo[2,3-b]pyridin-5-yl]phenyl]-5-(methylamino)-1,3,4-thiadiazole]
< 1	CCN(C)S(=O)(=O)Nc1ccc(F)c(C(=O)c2c[nH]c3ncc(-c4ccc(C(C)(C)O)nc4)cc23)c1F [P-0307, 3-[3-[[ethyl(methyl)sulfamoyl]amino]-2,6-difluoro-benzoyl]-5-[6-(1-hydroxy-1-methyl-ethyl)-3-pyridyl]-1H-pyrrolo[2,3-b]pyridine]
< 1	CCN(CC)c1ccc(-c2cnc3[nH]cc(C(=O)c4c(F)ccc(NS(=O)(=O)N(C)CC)c4F)c3c2)cc1 [P-0308, 5-[4-(diethylamino)phenyl]-3-[3-[[ethyl(methyl)sulfamoyl]amino]-2,6-difluoro-benzoyl]-1H-pyrrolo[2,3-b]pyridine]
